Experimental data as given in PubChem BioAssay (NCI).
Values after ≈ are worked out from the molar mass of the structure shown. Values joined by “and” are separate entries in the source; they are usually repeats but may differ in a detail not shown here. Equal values may be shown once.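 Protocol summary: plate cells (96-well), add compound at 5 concentrations, incubate 48 h, interpolate endpoints linearly. The concentration for 50% growth inhibition is given as GI50. The concentration for full growth arrest is given as TGI.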

What was measured:
Test in all cases: NCI anticancer screen, dose series, 48 h
KM12 colon = tested on: KM12 colon
SN12C renal = tested on: SN12C renal
XF 498 CNS = tested on: XF 498 CNS
LXFL 529 NSCLC = tested on: LXFL 529 NSCLC
A498 renal = tested on: A498 renal
T-47D breast = tested on: T-47D breast
NCI/ADR-RES ovarian = tested on: NCI/ADR-RES ovarian
786-0 renal = tested on: 786-0 renal
OVCAR-8 ovarian = tested on: OVCAR-8 ovarian
DLD-1 colon = tested on: DLD-1 colon
HCT-116 colon = tested on: HCT-116 colon
NCI-H23 lung = tested on: NCI-H23 lung
RXF 393 renal = tested on: RXF 393 renal
HOP-62 NSCLC = tested on: HOP-62 NSCLC
HCC-2998 colon = tested on: HCC-2998 colon
TK-10 renal = tested on: TK-10 renal
DU-145 prostate = tested on: DU-145 prostate
SK-MEL-28 melanoma = tested on: SK-MEL-28 melanoma
SR leukemia = tested on: SR leukemia
OVCAR-3 ovarian = tested on: OVCAR-3 ovarian
A549 NSCLC = tested on: A549 NSCLC
DMS 114 small cell lung = tested on: DMS 114 small cell lung
CCRF-CEM leukemia = tested on: CCRF-CEM leukemia
LOX IMVI melanoma = tested on: LOX IMVI melanoma
OVCAR-5 ovarian = tested on: OVCAR-5 ovarian
HCT-15 colon = tested on: HCT-15 colon
COLO 205 colon = tested on: COLO 205 colon
M19-MEL melanoma = tested on: M19-MEL melanoma
HOP-18 NSCLC = tested on: HOP-18 NSCLC
RPMI-8226 leukemia = tested on: RPMI-8226 leukemia
SNB-78 CNS = tested on: SNB-78 CNS
RXF-631 renal = tested on: RXF-631 renal
SK-MEL-5 melanoma = tested on: SK-MEL-5 melanoma
HOP-92 NSCLC = tested on: HOP-92 NSCLC
HS 578T breast = tested on: HS 578T breast
MALME-3M melanoma = tested on: MALME-3M melanoma
SK-MEL-2 melanoma = tested on: SK-MEL-2 melanoma
SF-268 CNS = tested on: SF-268 CNS
SW-620 colon = tested on: SW-620 colon
SK-OV-3 ovarian = tested on: SK-OV-3 ovarian
MDA-MB-435 = tested on: MDA-MB-435
EKVX NSCLC = tested on: EKVX NSCLC
OVCAR-4 ovarian = tested on: OVCAR-4 ovarian
UO-31 renal = tested on: UO-31 renal
NCI-H226 lung = tested on: NCI-H226 lung
MDA-N = tested on: MDA-N
ACHN renal = tested on: ACHN renal
PC-3 prostate = tested on: PC-3 prostate
KM20L2 colon = tested on: KM20L2 colon
SNB-19 CNS = tested on: SNB-19 CNS
MOLT-4 leukemia = tested on: MOLT-4 leukemia
SF-539 CNS = tested on: SF-539 CNS
M14 melanoma = tested on: M14 melanoma
DMS 273 small cell lung = tested on: DMS 273 small cell lung
MCF7 breast = tested on: MCF7 breast
SF-295 CNS = tested on: SF-295 CNS
NCI-H522 lung = tested on: NCI-H522 lung
K-562 leukemia = tested on: K-562 leukemia
HL-60(TB) leukemia = tested on: HL-60(TB) leukemia
NCI-H460 lung = tested on: NCI-H460 lung
SNB-75 CNS = tested on: SNB-75 CNS
UACC-62 melanoma = tested on: UACC-62 melanoma
BT-549 breast = tested on: BT-549 breast
IGROV1 ovarian = tested on: IGROV1 ovarian
U251 CNS = tested on: U251 CNS
UACC-257 melanoma = tested on: UACC-257 melanoma
CAKI-1 renal = tested on: CAKI-1 renal
HT29 colon = tested on: HT29 colon

Cc1c(N)nc(C(CC(N)=O)NCC(N)C(N)=O)nc1C(=O)NC(C(=O)NC(C)C(O)C(C)C(=O)NC(C(=O)NCCc1nc(-c2nc(C(=O)NCCCNCCCCN)cs2)cs1)C(C)O)C(OC1OC(CO)C(O)C(O)C1OC1OC(CO)C(O)C(OC(N)=O)C1O)c1cnc[nH]1 (stereo not given)
GI50 (KM12 colon): 40 µg/mL (≈ 27.7 µM) | TGI (KM12 colon): > 10 µM | GI50 (SN12C renal): 3.12 µg/mL and 2.58 µg/mL | TGI (SN12C renal): 27.6 µg/mL and > 10 µM | TGI (XF 498 CNS): > 10 µM | TGI (LXFL 529 NSCLC): > 10 µM | GI50 (A498 renal): 18.5 µg/mL (≈ 12.8 µM) | TGI (A498 renal): > 10 µM | GI50 (T-47D breast): 16.5 µg/mL (≈ 11.5 µM) | GI50 (NCI/ADR-RES ovarian): 3.44 µg/mL and 1.4 µg/mL | TGI (NCI/ADR-RES ovarian): 17 µg/mL (≈ 11.8 µM) | GI50 (786-0 renal): 0.895 µg/mL and 0.562 µg/mL | TGI (786-0 renal): 19.4 µg/mL and > 10 µM | GI50 (OVCAR-8 ovarian): 2.1 µg/mL and 1.04 µg/mL | TGI (OVCAR-8 ovarian): 9.85 µg/mL and 25.1 µg/mL and > 10 µM | TGI (DLD-1 colon): > 10 µM | GI50 (HCT-116 colon): 0.288 µg/mL and 1.04 µg/mL | TGI (HCT-116 colon): 26.8 µg/mL and > 10 µM | GI50 (NCI-H23 lung): 0.251 µg/mL (≈ 0.174 µM) | TGI (NCI-H23 lung): 11.1 µg/mL and > 10 µM | TGI (RXF 393 renal): 3.45 µM | GI50 (HOP-62 NSCLC): 0.137 µg/mL (≈ 0.095 µM) | TGI (HCC-2998 colon): > 10 µM | GI50 (TK-10 renal): 19.4 µg/mL (≈ 13.4 µM) | TGI (TK-10 renal): > 10 µM | GI50 (DU-145 prostate): 2.17 µg/mL and 11.3 µg/mL | TGI (DU-145 prostate): 48 µg/mL (≈ 33.3 µM) | GI50 (SK-MEL-28 melanoma): 48 µg/mL (≈ 33.3 µM) | TGI (SK-MEL-28 melanoma): > 10 µM | GI50 (SR leukemia): 0.0139 µg/mL (≈ 0.00962 µM) | TGI (SR leukemia): 0.287 µg/mL (≈ 0.199 µM) | GI50 (OVCAR-3 ovarian): 7.69 µg/mL (≈ 5.34 µM) | GI50 (A549 NSCLC): 2.69 µg/mL and 1.06 µg/mL | TGI (A549 NSCLC): > 10 µM | TGI (DMS 114 small cell lung): > 10 µM | GI50 (CCRF-CEM leukemia): 3.15 µg/mL (≈ 2.19 µM) | TGI (CCRF-CEM leukemia): > 10 µM | GI50 (LOX IMVI melanoma): 0.324 µg/mL and 0.149 µg/mL | TGI (LOX IMVI melanoma): 3.47 µg/mL and 10.3 µg/mL and > 10 µM | GI50 (OVCAR-5 ovarian): 45.6 µg/mL (≈ 31.7 µM) | TGI (OVCAR-5 ovarian): > 10 µM | GI50 (HCT-15 colon): 1.92 µg/mL (≈ 1.33 µM) | TGI (HCT-15 colon): > 10 µM | GI50 (COLO 205 colon): 8.7 µg/mL and 4.7 µg/mL | TGI (COLO 205 colon): > 10 µM | TGI (M19-MEL melanoma): > 10 µM | TGI (HOP-18 NSCLC): > 10 µM | GI50 (RPMI-8226 leukemia): 13.3 µg/mL (≈ 9.2 µM) | TGI (RPMI-8226 leukemia): > 10 µM | TGI (SNB-78 CNS): > 10 µM | TGI (RXF-631 renal): > 10 µM | GI50 (SK-MEL-5 melanoma): 1.05 µg/mL and 0.164 µg/mL | TGI (SK-MEL-5 melanoma): 15.9 µg/mL and > 10 µM | GI50 (HOP-92 NSCLC): 3.38 µg/mL (≈ 2.35 µM) | GI50 (HS 578T breast): 5.69 µg/mL and 0.24 µg/mL | TGI (HS 578T breast): 38.4 µg/mL (≈ 26.6 µM) | TGI (MALME-3M melanoma): > 10 µM | TGI (SK-MEL-2 melanoma): > 10 µM | GI50 (SF-268 CNS): 2.55 µg/mL and 0.324 µg/mL | TGI (SF-268 CNS): 23.8 µg/mL and > 10 µM | GI50 (SW-620 colon): 25.2 µg/mL (≈ 17.5 µM) | TGI (SW-620 colon): > 10 µM | GI50 (SK-OV-3 ovarian): 8.67 µg/mL (≈ 6.02 µM) | TGI (SK-OV-3 ovarian): > 10 µM | GI50 (MDA-MB-435): 15.9 µg/mL (≈ 11 µM) | TGI (EKVX NSCLC): > 10 µM | TGI (OVCAR-4 ovarian): > 10 µM | GI50 (UO-31 renal): 2.07 µg/mL and 0.691 µg/mL | TGI (UO-31 renal): 5.71 µg/mL and > 10 µM | GI50 (NCI-H226 lung): 9.65 µg/mL and 3.45 µg/mL | GI50 (MDA-N): 27.4 µg/mL (≈ 19 µM) | GI50 (ACHN renal): 0.182 µg/mL and 0.0425 µg/mL | GI50 (PC-3 prostate): 15.3 µg/mL (≈ 10.6 µM) | TGI (KM20L2 colon): > 10 µM | GI50 (SNB-19 CNS): 8.2 µg/mL and 29.7 µg/mL | TGI (SNB-19 CNS): > 10 µM | GI50 (MOLT-4 leukemia): 4.22 µg/mL and 2.23 µg/mL | GI50 (SF-539 CNS): 0.21 µg/mL and 0.0169 µg/mL | GI50 (M14 melanoma): 9.31 µg/mL (≈ 6.46 µM) | TGI (M14 melanoma): > 10 µM | TGI (DMS 273 small cell lung): > 10 µM | GI50 (MCF7 breast): 3.08 µg/mL (≈ 2.14 µM) | GI50 (SF-295 CNS): 0.603 µg/mL and 0.261 µg/mL | TGI (SF-295 CNS): 12 µg/mL and 4.04 µM | GI50 (NCI-H522 lung): 7.11 µg/mL (≈ 4.94 µM) | TGI (NCI-H522 lung): > 10 µM | GI50 (K-562 leukemia): 29.2 µg/mL (≈ 20.3 µM) | TGI (K-562 leukemia): > 10 µM | GI50 (HL-60(TB) leukemia): 11.8 µg/mL (≈ 8.2 µM) | GI50 (NCI-H460 lung): 0.199 µg/mL and 0.171 µg/mL | TGI (NCI-H460 lung): > 10 µM | GI50 (SNB-75 CNS): 8.83 µg/mL and 3.08 µg/mL | GI50 (UACC-62 melanoma): 0.605 µg/mL and 0.744 µg/mL | TGI (UACC-62 melanoma): 25.6 µg/mL and > 10 µM | GI50 (BT-549 breast): 13.7 µg/mL (≈ 9.54 µM) | GI50 (IGROV1 ovarian): 9.17 µg/mL and 6.68 µg/mL | TGI (IGROV1 ovarian): > 10 µM | GI50 (U251 CNS): 8.06 µg/mL (≈ 5.59 µM) | TGI (U251 CNS): > 10 µM | GI50 (UACC-257 melanoma): 86.1 µg/mL (≈ 59.8 µM) | TGI (UACC-257 melanoma): > 10 µM | GI50 (CAKI-1 renal): 0.845 µg/mL and 2.94 µg/mL | TGI (CAKI-1 renal): 2.38 µM | GI50 (HT29 colon): 50.8 µg/mL (≈ 35.3 µM) | TGI (HT29 colon): > 10 µM
